Test results published in ChEMBL document CHEMBL1806399, “Synthesis and SAR of new pyrazolo[4,3-h]quinazoline-3-carboxamide derivatives as potent and selective MPS1 kinase inhibitors” (Bioorg Med Chem Lett, 2011).
≈ marks a conversion by molar mass, not a printed value.

Legend:
[1] = target: T1, Dual specificity protein kinase TTK (Homo sapiens, UniProt P33981); experiment: Inhibition of MPS1 assessed as [33P]-gamma-ATP incorporation into substrate P38-betatide by gamma counting
T1 sequence (P33981 whole entry): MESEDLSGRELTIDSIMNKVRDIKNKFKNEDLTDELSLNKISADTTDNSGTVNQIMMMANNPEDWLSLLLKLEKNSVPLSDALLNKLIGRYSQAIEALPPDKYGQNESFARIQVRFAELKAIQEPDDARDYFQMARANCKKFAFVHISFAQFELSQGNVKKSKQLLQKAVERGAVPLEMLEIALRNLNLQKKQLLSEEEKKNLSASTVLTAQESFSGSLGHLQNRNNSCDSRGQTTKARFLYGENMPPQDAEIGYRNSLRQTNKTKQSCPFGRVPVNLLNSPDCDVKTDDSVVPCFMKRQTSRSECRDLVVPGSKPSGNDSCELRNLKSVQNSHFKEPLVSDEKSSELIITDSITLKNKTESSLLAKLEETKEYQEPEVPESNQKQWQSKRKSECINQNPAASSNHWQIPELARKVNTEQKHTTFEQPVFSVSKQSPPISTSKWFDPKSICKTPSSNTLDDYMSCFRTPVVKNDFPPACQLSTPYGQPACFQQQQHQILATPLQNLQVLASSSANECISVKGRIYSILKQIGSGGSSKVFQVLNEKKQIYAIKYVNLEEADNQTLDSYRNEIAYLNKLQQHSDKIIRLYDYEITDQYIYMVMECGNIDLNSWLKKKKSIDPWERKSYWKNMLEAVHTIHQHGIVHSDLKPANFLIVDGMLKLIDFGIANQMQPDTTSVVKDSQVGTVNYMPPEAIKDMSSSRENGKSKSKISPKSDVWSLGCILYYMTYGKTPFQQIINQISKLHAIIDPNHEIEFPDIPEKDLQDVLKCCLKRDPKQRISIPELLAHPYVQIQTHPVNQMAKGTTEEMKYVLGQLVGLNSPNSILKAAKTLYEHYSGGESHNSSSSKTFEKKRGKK

[2] = target: Cyclin-dependent kinase 2/cyclin A (Homo sapiens, UniProt P24941); experiment: Inhibition of CDK2/Cyclin A assessed as [33P]-gamma-ATP incorporation into substrate by gamma counting; assay type: protein-complex assay
Aurora kinase A = target: T2, Aurora kinase A (Homo sapiens, UniProt O14965); experiment: Inhibition of Aur-A assessed as [33P]-gamma-ATP incorporation into substrate by gamma counting
T2 sequence (O14965 whole entry): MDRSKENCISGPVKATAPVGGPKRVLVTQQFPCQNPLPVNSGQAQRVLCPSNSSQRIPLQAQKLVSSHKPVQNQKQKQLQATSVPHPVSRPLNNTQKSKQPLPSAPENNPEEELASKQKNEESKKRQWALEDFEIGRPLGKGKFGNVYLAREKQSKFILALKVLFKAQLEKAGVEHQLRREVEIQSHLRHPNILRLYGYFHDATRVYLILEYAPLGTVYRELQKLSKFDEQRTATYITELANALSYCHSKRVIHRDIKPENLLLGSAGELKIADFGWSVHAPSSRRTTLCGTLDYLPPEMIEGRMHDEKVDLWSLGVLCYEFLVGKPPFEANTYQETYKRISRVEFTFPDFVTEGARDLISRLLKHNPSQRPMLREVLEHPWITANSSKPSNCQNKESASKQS

[3] = target: Serine/threonine-protein kinase PLK1 (Homo sapiens, UniProt P53350); experiment: Inhibition of PLK1 assessed as [33P]-gamma-ATP incorporation into substrate by gamma counting
[4] = Solubility of the compound at pH 7; assay type: physicochemical; details: buffer
A2780 = experiment: Antiproliferative activity in human A2780 cells after 72 hrs by CellTiter-Glo assay; assay type: functional, cell-based; details: A2780, 72 h
U2OS = experiment: Inhibition of mitosis in human U2OS cells assessed as histone H3 phosphorylation at Ser 10 residue after 2 hrs by immunoassay; assay type: functional, cell-based
[5] = AUC in mouse at 10 mg/kg, iv; assay type: ADME, organism-based; set-up: dose 10 mg/kg, route intravenous; details: plasma
[6] = AUC in mouse at 10 mg/kg, po; assay type: ADME, organism-based; set-up: dose 10 mg/kg, route oral; details: plasma
[7] = Oral bioavailability in mouse at 10 mg/kg; assay type: ADME, organism-based; details: in vivo
[8] = Clearance in mouse at 10 mg/kg, iv; assay type: ADME, organism-based; set-up: dose 10 mg/kg, route intravenous; details: in vivo
[9] = Volume of distribution at steady state in mouse at 10 mg/kg, iv; assay type: ADME, organism-based; set-up: dose 10 mg/kg, route intravenous; details: in vivo, read-out: Vdss
[10] = Half life in mouse at 10 mg/kg, po; assay type: ADME, organism-based; set-up: dose 10 mg/kg, route oral; details: in vivo
[11] = Half life in mouse at 10 mg/kg, iv; assay type: ADME, organism-based; set-up: dose 10 mg/kg, route intravenous; details: in vivo
[12] = Cmax in mouse at 10 mg/kg, po; assay type: ADME, organism-based; set-up: dose 10 mg/kg, route oral; details: in vivo

Chain of Serine/threonine-protein kinase PLK1 (P53350 whole entry): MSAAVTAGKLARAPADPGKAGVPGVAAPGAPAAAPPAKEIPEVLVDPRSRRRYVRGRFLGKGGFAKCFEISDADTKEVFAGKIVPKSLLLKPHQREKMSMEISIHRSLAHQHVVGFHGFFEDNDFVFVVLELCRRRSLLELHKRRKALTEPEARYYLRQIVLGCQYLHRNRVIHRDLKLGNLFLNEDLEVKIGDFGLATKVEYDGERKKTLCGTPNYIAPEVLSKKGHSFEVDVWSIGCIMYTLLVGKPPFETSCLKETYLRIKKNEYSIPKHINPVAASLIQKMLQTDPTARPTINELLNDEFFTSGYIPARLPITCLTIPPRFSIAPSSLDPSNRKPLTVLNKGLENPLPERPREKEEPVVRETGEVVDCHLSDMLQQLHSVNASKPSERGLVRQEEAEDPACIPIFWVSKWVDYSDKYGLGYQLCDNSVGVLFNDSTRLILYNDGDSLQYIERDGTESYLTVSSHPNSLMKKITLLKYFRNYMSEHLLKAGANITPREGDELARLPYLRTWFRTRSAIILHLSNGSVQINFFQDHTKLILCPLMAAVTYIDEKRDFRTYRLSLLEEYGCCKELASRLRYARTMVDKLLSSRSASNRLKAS

Row | SMILES | IC50 [1] | IC50 [2] | IC50 (Aurora kinase A) | IC50 [3] | solubility [4] | IC50 (A2780) | IC50 (U2OS) | AUC [5] | AUC [6] | bioavailability [7] | clearance [8] | Vd [9] | half-life [10] | half-life [11] | Cmax [12]
1 | COc1ccccc1Nc1ncc2c(n1)-c1c(c(C(N)=O)nn1C)CC2 | 0.066 µM |  |  |  |  |  |  |  |  |  |  |  |  |  | 
2 | Cc1ccccc1Nc1ncc2c(n1)-c1c(c(C(N)=O)nn1C)CC2 | 0.241 µM |  |  |  |  |  |  |  |  |  |  |  |  |  | 
3 | Cn1nc(C(N)=O)c2c1-c1nc(Nc3ccccc3OC(F)(F)F)ncc1CC2 | 1.22 µM | > 10 µM | > 10 µM |  |  |  |  |  |  |  |  |  |  |  | 
4 | CCc1cccc(CC)c1NC(=O)c1nn(C)c2c1CCc1cnc(Nc3ccc(C(=O)N4CCC[C@@H]4CN4CCCC4)cc3OC(F)(F)F)nc1-2 | 0.391 µM | > 10 µM | > 10 µM | > 10 µM | 65 µM (≈ 46.6 µg/mL) | 0.422 µM | 0.21 µM |  |  |  |  |  |  |  | 
5 | CCc1cccc(CC)c1NC(=O)c1nn(C)c2c1CCc1cnc(Nc3ccc(C(=O)N4CCC[C@H]4CN4CCCC4)cc3OC)nc1-2 | 0.072 µM | > 10 µM | 0.491 µM | > 10 µM | 96 µM (≈ 63.6 µg/mL) | 0.073 µM | 0.013 µM |  |  |  |  |  |  |  | 
6 | CCc1cccc(CC)c1NC(=O)c1nn(C)c2c1CCc1cnc(Nc3ccc(C(=O)N4CCC[C@H]4CN4CCCC4)cc3OC(F)(F)F)nc1-2 | 0.202 µM | > 10 µM | > 10 µM | > 10 µM | 69 µM (≈ 49.5 µg/mL) | 0.407 µM | 0.26 µM |  |  |  |  |  |  |  | 
7 | CCc1cccc(CC)c1NC(=O)c1nn(C)c2c1CCc1cnc(Nc3ccc(C(=O)N4CCC(N(C)C)CC4)cc3OC)nc1-2 | 0.019 µM | > 10 µM | 0.484 µM | > 10 µM | 116 µM (≈ 73.9 µg/mL) | 0.083 µM | 0.002 µM |  |  |  |  |  |  |  | 
8 | CCc1cccc(CC)c1NC(=O)c1nn(C)c2c1CCc1cnc(Nc3ccc(C(=O)N4CCC(N(C)C)CC4)cc3OC(F)(F)F)nc1-2 | 0.206 µM | > 10 µM | > 10 µM | > 10 µM | 70 µM (≈ 48.4 µg/mL) | 0.485 µM | 0.04 µM |  |  |  |  |  |  |  | 
9 | CCc1cccc(CC)c1NC(=O)c1nn(C)c2c1CCc1cnc(Nc3ccc(C(=O)N4CCCN(C)CC4)cc3OC)nc1-2 | 0.021 µM | 3.62 µM | 0.372 µM | > 10 µM | 59 µM (≈ 36.7 µg/mL) | < 0.016 µM | 0.002 µM |  |  |  |  |  |  |  | 
10 | CCc1cccc(CC)c1NC(=O)c1nn(C)c2c1CCc1cnc(Nc3ccc(C(=O)N4CCCN(C)CC4)cc3OC(F)(F)F)nc1-2 | 0.146 µM | > 10 µM | > 10 µM | > 10 µM | 46 µM (≈ 31.1 µg/mL) | 0.244 µM | 0.032 µM | 2.9 µM·h | 0.64 µM·h | 22.4% | 77.5 mL/min/kg | 8.41 L/kg | 2.92 h | 1.61 h | 245 nM
11 | CCc1cccc(CC)c1NC(=O)c1nn(C)c2c1CCc1cnc(Nc3ccccc3)nc1-2 | 0.53 µM | > 10 µM | 0.152 µM | > 10 µM |  |  |  |  |  |  |  |  |  |  | 
12 | Cn1nc(C(=O)NCCc2ccccc2)c2c1-c1nc(Nc3ccccc3)ncc1CC2 | > 12 µM | 0.697 µM | 0.677 µM | > 10 µM |  |  |  |  |  |  |  |  |  |  | 
13 | CCc1cccc(CC)c1NC(=O)c1nn(C)c2c1CCc1cnc(Nc3ccccc3OC)nc1-2 | 0.525 µM | > 10 µM | 3.17 µM | > 10 µM | < 1 µM | 0.541 µM |  |  |  |  |  |  |  |  | 
14 | CCc1cccc(CC)c1NC(=O)c1nn(C)c2c1CCc1cnc(Nc3ccccc3OC(F)(F)F)nc1-2 | 0.823 µM | > 10 µM | > 10 µM | > 10 µM | < 1 µM | 2.86 µM |  |  |  |  |  |  |  |  | 
15 | CCc1cccc(CC)c1NC(=O)c1nn(C)c2c1CCc1cnc(Nc3ccc(C(N)=O)cc3OC)nc1-2 | 0.036 µM | 5.57 µM | 0.768 µM | 3.03 µM | < 1 µM | 0.135 µM | 0.004 µM |  |  |  |  |  |  |  | 
16 | CCc1cccc(CC)c1NC(=O)c1nn(C)c2c1CCc1cnc(Nc3ccc(C(N)=O)cc3OC(F)(F)F)nc1-2 | 0.14 µM | > 10 µM | > 10 µM | > 10 µM | 1 µM (≈ 0.58 µg/mL) | 0.298 µM | 0.16 µM |  |  |  |  |  |  |  | 
17 | CCc1cccc(CC)c1NC(=O)c1nn(C)c2c1CCc1cnc(Nc3ccc(C(=O)NC4CCN(C)CC4)cc3OC)nc1-2 | 0.084 µM | > 10 µM | 1.45 µM | 0.237 µM | 3 µM (≈ 1.87 µg/mL) | 0.15 µM | 0.016 µM |  |  |  |  |  |  |  | 
18 | CCc1cccc(CC)c1NC(=O)c1nn(C)c2c1CCc1cnc(Nc3ccc(C(=O)NCCN(C)C)cc3OC)nc1-2 | 0.033 µM | > 10 µM | 0.75 µM | 1.65 µM | 44 µM (≈ 26.3 µg/mL) | 0.101 µM | 0.012 µM |  |  |  |  |  |  |  | 
19 | CCc1cccc(CC)c1NC(=O)c1nn(C)c2c1CCc1cnc(Nc3ccc(C(=O)NCCN(C)C)cc3OC(F)(F)F)nc1-2 | 0.13 µM | > 10 µM | 1.38 µM | > 10 µM | 27 µM (≈ 17.6 µg/mL) | 0.771 µM | 0.11 µM |  |  |  |  |  |  |  | 
20 | CCc1cccc(CC)c1NC(=O)c1nn(C)c2c1CCc1cnc(Nc3ccc(C(=O)N4CCC[C@@H]4CN4CCCC4)cc3OC)nc1-2 | 0.103 µM | > 10 µM | 1.38 µM | > 10 µM | 110 µM (≈ 72.9 µg/mL) | 0.083 µM | 0.011 µM |  |  |  |  |  |  |  | 
21 | Cn1nc(C(=O)NCc2ccccc2)c2c1-c1nc(Nc3ccccc3)ncc1CC2 | > 11 µM |  |  | > 10 µM |  |  |  |  |  |  |  |  |  |  | 
22 | CNC(=O)c1nn(C)c2c1CCc1cnc(Nc3ccccc3)nc1-2 | 2.17 µM |  |  |  |  |  |  |  |  |  |  |  |  |  | 
